Patent US12139520B2 (priority 2020, dated 2024)
pEC50: −log10 of the molar value. Bridge positions count the residues as written; N and C are the ends. Square brackets hold non-standard residues; d marks the D form. Peptide text beside a SMILES is read from it. Hyp = O=C(O)[C@@H]1C[C@@H](O)CN1

Legend:
hAMY3 receptor = target: T1, hAMY3 receptor (Homo sapiens, UniProt O60896+P30988); assay: cAMP assay for in vitro receptor activation, hAMY3-R; type: cell-based; conditions: cAMP assay, hAMY3 receptor; read-out: hAMY3R EC50
T1 sequence (P30988 25-474): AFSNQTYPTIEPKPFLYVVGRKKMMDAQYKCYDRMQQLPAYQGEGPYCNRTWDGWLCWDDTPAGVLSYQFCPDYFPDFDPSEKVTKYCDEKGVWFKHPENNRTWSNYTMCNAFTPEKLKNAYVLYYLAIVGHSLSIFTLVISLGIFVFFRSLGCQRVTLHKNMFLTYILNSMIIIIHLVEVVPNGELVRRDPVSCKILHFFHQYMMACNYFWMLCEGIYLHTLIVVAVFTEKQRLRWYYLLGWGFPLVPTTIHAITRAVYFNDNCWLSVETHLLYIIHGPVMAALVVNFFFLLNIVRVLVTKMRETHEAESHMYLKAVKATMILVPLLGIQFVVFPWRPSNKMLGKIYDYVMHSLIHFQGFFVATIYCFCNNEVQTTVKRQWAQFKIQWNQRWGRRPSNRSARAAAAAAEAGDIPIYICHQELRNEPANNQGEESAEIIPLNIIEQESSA
T1 sequence (O60896 24-148 partner): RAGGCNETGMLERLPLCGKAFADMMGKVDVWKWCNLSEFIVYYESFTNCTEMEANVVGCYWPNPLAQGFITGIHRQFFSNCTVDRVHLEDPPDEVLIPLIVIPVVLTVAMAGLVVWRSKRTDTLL
In short: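 Read-out is TR-FRET cAMP signal, recorded one hour after reagent addition, following 30 min room-temperature stimulation of stable hAMY3 cells with graded compound doses in casein/IBMX (0.5 mM) buffer.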

[1] = Physical stability of peptide analogues (Thioflavin T fibrillation); type: physicochemical; conditions: maximum ThT signal normalized between hAMY maximum and buffer background; 40° C., shaking, four days; pH 7 per table title
In short: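 Maximum ThT emission at 480 nm, after LOESS smoothing, is given as percent of the span from buffer background to hAMY. Conditions: 50 mM buffer at pH 4 or 7, 4 μM dye, 40 °C, repeated shaking, readings every 10 min for four days.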

Compound: CC[C@H](C)[C@H](NC(=O)[C@H](CCC(N)=O)NC(=O)[C@H](Cc1c[nH]cn1)NC(=O)[C@H](C)NC(=O)[C@H](CC(C)C)NC(=O)[C@H](CCCNC(=N)N)NC(=O)[C@H](CCC(N)=O)NC(=O)[C@@H](NC(=O)[C@@H](NC(=O)[C@@H]1CSSC[C@H](NC(=O)CN)C(=O)N[C@@H](CCCNC(=N)N)C(=O)N[C@@H]([C@@H](C)O)C(=O)NCC(=O)N[C@@H]([C@@H](C)O)C(=O)N1)[C@@H](C)O)C(C)C)C(=O)N[C@@H](Cc1ccc(O)cc1)C(=O)N[C@@H](CCC(N)=O)C(=O)N[C@@H](Cc1ccccc1)C(=O)N[C@H](C(=O)N[C@@H](CC(=O)O)C(=O)N[C@@H](CCCCN)C(=O)N[C@@H](CC(=O)O)C(=O)N[C@@H](CCCCN)C(=O)N[C@@H](CC(=O)O)C(=O)N[C@@H](CC(N)=O)C(=O)N[C@H](C(=O)N[C@@H](C)C(=O)N1CCC[C@H]1C(=O)N[C@@H](CCCNC(=N)N)C(=O)N[C@H](C(=O)N[C@@H](CC(N)=O)C(=O)N[C@H](C(=O)N[C@@H](CO)C(=O)N1CCC[C@H]1C(=O)N[C@@H](CCC(N)=O)C(=O)NCC(=O)N[C@@H](Cc1ccc(O)cc1)C(N)=O)C(C)C)[C@@H](C)O)C(C)C)[C@@H](C)O [compound 176] (H-GCRTGTCTVQRLAHQIYQFTDKDKDNVAPRTNVSPQGY-NH2; disulfide 2-7; N-terminus assumed)
- pEC50 (hAMY3 receptor): 10.12
- Max ThT signal (%) [1]: 6.800%

Compound: CC[C@H](C)[C@H](NC(=O)[C@H](CCC(N)=O)NC(=O)[C@H](Cc1c[nH]cn1)NC(=O)[C@H](C)NC(=O)[C@H](CC(C)C)NC(=O)[C@H](CCCNC(=N)N)NC(=O)[C@H](CCC(N)=O)NC(=O)[C@@H](NC(=O)[C@@H](NC(=O)[C@@H]1CSSC[C@H](NC(=O)CN)C(=O)N[C@@H](CCCNC(=N)N)C(=O)N[C@@H](Cc2ccccc2)C(=O)NCC(=O)N[C@@H]([C@@H](C)O)C(=O)N1)[C@@H](C)O)C(C)C)C(=O)N[C@@H](Cc1ccc(O)cc1)C(=O)N[C@@H](CCC(N)=O)C(=O)N[C@@H](Cc1ccccc1)C(=O)N[C@H](C(=O)N[C@@H](CC(=O)O)C(=O)N[C@@H](CCCCN)C(=O)N[C@@H](CC(=O)O)C(=O)N[C@@H](CCCCN)C(=O)N[C@@H](CC(=O)O)C(=O)N[C@@H](CC(N)=O)C(=O)N[C@H](C(=O)N[C@@H](C)C(=O)N1CCC[C@H]1C(=O)N[C@@H](CCCNC(=N)N)C(=O)N[C@@H](CO)C(=O)N[C@@H](CC(N)=O)C(=O)N[C@H](C(=O)N[C@@H](CO)C(=O)N1CCC[C@H]1C(=O)N[C@@H](CCC(N)=O)C(=O)NCC(=O)N[C@@H](Cc1ccc(O)cc1)C(N)=O)[C@@H](C)CC)C(C)C)[C@@H](C)O [compound 182] (H-GCRFGTCTVQRLAHQIYQFTDKDKDNVAPRSNISPQGY-NH2; disulfide 2-7; N-terminus assumed)
- pEC50 (hAMY3 receptor): 10.07
- Max ThT signal (%) [1]: 15.600%

Compound: CC[C@H](C)[C@H](NC(=O)[C@H](CCC(N)=O)NC(=O)[C@H](Cc1c[nH]cn1)NC(=O)[C@H](C)NC(=O)[C@H](CC(C)C)NC(=O)[C@H](CCCNC(=N)N)NC(=O)[C@H](CCC(N)=O)NC(=O)[C@@H](NC(=O)[C@@H](NC(=O)[C@@H]1CSSC[C@H](NC(=O)CN)C(=O)N[C@@H](CCCNC(=N)N)C(=O)N[C@@H]([C@@H](C)O)C(=O)NCC(=O)N[C@@H]([C@@H](C)O)C(=O)N1)[C@@H](C)O)C(C)C)C(=O)N[C@@H](Cc1ccc(O)cc1)C(=O)N[C@@H](CCC(N)=O)C(=O)N[C@@H](Cc1ccccc1)C(=O)N[C@H](C(=O)N[C@@H](CC(=O)O)C(=O)N[C@@H](CCCCN)C(=O)N[C@@H](Cc1ccccc1)C(=O)N[C@@H](CCCCN)C(=O)N[C@@H](CC(=O)O)C(=O)N[C@@H](CC(N)=O)C(=O)N[C@H](C(=O)N[C@@H](C)C(=O)N1CCC[C@H]1C(=O)N[C@@H](CCCNC(=N)N)C(=O)N[C@@H](CO)C(=O)N[C@@H](CCCCN)C(=O)N[C@H](C(=O)N[C@@H](CO)C(=O)N1CCC[C@H]1C(=O)N[C@@H](CCC(N)=O)C(=O)N[C@H](C(=O)N[C@@H](Cc1c[nH]c2ccccc12)C(N)=O)[C@@H](C)O)[C@@H](C)CC)C(C)C)[C@@H](C)O [compound 184] (H-GCRTGTCTVQRLAHQIYQFTDKFKDNVAPRSKISPQTW-NH2; disulfide 2-7; N-terminus assumed)
- pEC50 (hAMY3 receptor): 10.05
- Max ThT signal (%) [1]: 0.800%

Compound: CC[C@H](C)[C@H](NC(=O)[C@H](CC(N)=O)NC(=O)[C@H](CO)NC(=O)[C@H](CCCNC(=N)N)NC(=O)[C@@H]1CCCN1C(=O)[C@H](C)NC(=O)[C@@H](NC(=O)[C@H](CC(N)=O)NC(=O)[C@H](CC(=O)O)NC(=O)[C@H](CCCCN)NC(=O)[C@H](CC(=O)O)NC(=O)[C@H](CCCCN)NC(=O)[C@H](CC(=O)O)NC(=O)[C@@H](NC(=O)[C@H](Cc1ccccc1)NC(=O)[C@H](CCC(N)=O)NC(=O)[C@H](Cc1ccc(O)cc1)NC(=O)[C@@H](NC(=O)[C@H](CCC(N)=O)NC(=O)[C@H](Cc1c[nH]cn1)NC(=O)[C@H](C)NC(=O)[C@H](CC(C)C)NC(=O)[C@H](CCCNC(=N)N)NC(=O)[C@H](CCC(N)=O)NC(=O)[C@@H](NC(=O)[C@@H](NC(=O)[C@@H]1CSSC[C@H](NC(=O)CN)C(=O)N[C@@H](CCCNC(=N)N)C(=O)N[C@@H]([C@@H](C)O)C(=O)NCC(=O)N[C@@H]([C@@H](C)O)C(=O)N1)[C@@H](C)O)C(C)C)[C@@H](C)CC)[C@@H](C)O)C(C)C)C(=O)NCC(=O)N1CCC[C@H]1C(=O)N[C@@H](CCC(N)=O)C(=O)NCC(=O)N[C@@H](Cc1ccc(O)cc1)C(N)=O [compound 191] (H-GCRTGTCTVQRLAHQIYQFTDKDKDNVAPRSNIGPQGY-NH2; disulfide 2-7; N-terminus assumed)
- pEC50 (hAMY3 receptor): 10.01
- Max ThT signal (%) [1]: 6.300%

Compound: CC[C@H](C)[C@H](NC(=O)[C@H](CCC(N)=O)NC(=O)[C@H](Cc1c[nH]cn1)NC(=O)[C@H](C)NC(=O)[C@H](CC(C)C)NC(=O)[C@H](CCCNC(=N)N)NC(=O)[C@H](CCC(N)=O)NC(=O)[C@@H](NC(=O)[C@@H](NC(=O)[C@@H]1CSSC[C@H](NC(=O)[C@@H](N)CCCCN)C(=O)N[C@@H](CCCNC(=N)N)C(=O)N[C@@H](CCSC)C(=O)NCC(=O)N[C@@H]([C@@H](C)O)C(=O)N1)[C@@H](C)O)C(C)C)C(=O)N[C@@H](Cc1ccc(O)cc1)C(=O)N[C@@H](CCC(N)=O)C(=O)N[C@@H](Cc1ccccc1)C(=O)N[C@H](C(=O)N[C@@H](CC(=O)O)C(=O)N[C@@H](CCCCN)C(=O)N[C@@H](CC(=O)O)C(=O)N[C@@H](CCCCN)C(=O)N[C@@H](CC(=O)O)C(=O)N[C@@H](CC(N)=O)C(=O)N[C@H](C(=O)N[C@@H](C)C(=O)N1CCC[C@H]1C(=O)N[C@@H](CCCNC(=N)N)C(=O)N[C@@H](CO)C(=O)N[C@@H](CCCCN)C(=O)N[C@H](C(=O)N[C@@H](CO)C(=O)N1CCC[C@H]1C(=O)N[C@@H](CCC(N)=O)C(=O)N[C@H](C(=O)N1C[C@H](O)C[C@H]1C(N)=O)[C@@H](C)O)[C@@H](C)CC)C(C)C)[C@@H](C)O [compound 194] (H-KCRMGTCTVQRLAHQIYQFTDKDKDNVAPRSKISPQT[Hyp]-NH2; disulfide 2-7; N-terminus assumed)
- pEC50 (hAMY3 receptor): 9.95
- Max ThT signal (%) [1]: 6.000%

Compound: CC[C@H](C)[C@H](NC(=O)[C@H](CCC(N)=O)NC(=O)[C@H](Cc1c[nH]cn1)NC(=O)[C@H](C)NC(=O)[C@H](CC(C)C)NC(=O)[C@H](CCCNC(=N)N)NC(=O)[C@H](CCC(N)=O)NC(=O)[C@@H](NC(=O)[C@@H](NC(=O)[C@@H]1CSSC[C@H](NC(=O)CN)C(=O)N[C@@H](CCCNC(=N)N)C(=O)N[C@@H]([C@@H](C)O)C(=O)NCC(=O)N[C@@H]([C@@H](C)O)C(=O)N1)[C@@H](C)O)C(C)C)C(=O)N[C@@H](Cc1ccc(O)cc1)C(=O)N[C@@H](CCC(N)=O)C(=O)N[C@@H](Cc1ccccc1)C(=O)N[C@H](C(=O)N[C@@H](CC(=O)O)C(=O)N[C@@H](CCCCN)C(=O)N[C@@H](Cc1ccccc1)C(=O)N[C@@H](CCCCN)C(=O)N[C@@H](CC(=O)O)C(=O)N[C@@H](CC(N)=O)C(=O)N[C@H](C(=O)N[C@@H](C)C(=O)N1CCC[C@H]1C(=O)N[C@@H](CCCNC(=N)N)C(=O)N[C@@H](CO)C(=O)N[C@@H](CCCCN)C(=O)N[C@H](C(=O)N[C@@H](CO)C(=O)N1CCC[C@H]1C(=O)N[C@@H](CCC(N)=O)C(=O)N[C@@H](Cc1c[nH]cn1)C(=O)N1C[C@H](O)C[C@H]1C(N)=O)[C@@H](C)CC)C(C)C)[C@@H](C)O [compound 201] (H-GCRTGTCTVQRLAHQIYQFTDKFKDNVAPRSKISPQH[Hyp]-NH2; disulfide 2-7; N-terminus assumed)
- pEC50 (hAMY3 receptor): 9.90
- Max ThT signal (%) [1]: 1.000%
